Assay results published in ChEMBL document CHEMBL5360641, “4'-Ethynyl-2'-deoxy-2'-β-fluoro-2-fluoroadenosine: A Highly Potent and Orally Available Clinical Candidate for the Treatment of HIV-1 Infection” (J Med Chem, 2023).
pEC50: −log10 of the molar value.

Tests used:
[1] = test system: Human immunodeficiency virus 1; test: Antiviral activity against HIV1 VSV-G pseudotyped virus infected in human HEK293T cells assessed as inhibition of viral growth preincubated for 3 hrs followed by washout and further incubated with compound for 72 hrs by luciferase assay; assay type: functional, organism-based; conditions: Human immunodeficiency virus 1, HEK-293T
[2] = test system: Human immunodeficiency virus 1; test: Antiviral activity against HIV1 IIIB infected in human C8166 cells assessed as inhibition of syncytia formation incubated for 3 to 7 days by syncytia assays; assay type: functional, organism-based; conditions: Human immunodeficiency virus 1, IIIB
[3] = test system: Human immunodeficiency virus 1; test: Antiviral activity against HIV1 4755-5 infected in human C8166 cells assessed as inhibition of viral replication by measuring reduction in p24 antigen level incubated for 3 to 7 days by ELISA analysis; assay type: functional, organism-based; conditions: Human immunodeficiency virus 1, 4755-5, C8166
[4] = test system: Human immunodeficiency virus 1; test: Antiviral activity against HIV-1 harboring integrase G140S/Q148H double mutant infected in human TZM-bl cells assessed as inhibition of viral replication incubated for 3 to 7 days by luciferase assay; assay type: functional, organism-based; conditions: Human immunodeficiency virus 1, TZM-bl
[5] = Selectivity index, ratio of CC50 for cytotoxicity against HEK293T cells assessed as reduction in cell viability by MTT assay to EC50 for antiviral activity against HIV1 VSV-G pseudotyped virus infected in human HEK293T cells assessed as inhibition of viral growth; assay type: toxicity, cell-based; conditions: read-out: Ratio CC50/EC50
[6] = test system: Human immunodeficiency virus 1; test: Antiviral activity against HIV1 WAN infected in human PBMC assessed as inhibition of viral replication by measuring reduction in p24 antigen level incubated for 3 to 7 days by ELISA analysis; assay type: functional, organism-based; conditions: Human immunodeficiency virus 1, WAN
[7] = test system: Human immunodeficiency virus 1; test: Antiviral activity against HIV1 IIIB infected in human MT4 cells assessed as inhibition of viral replication incubated for 3 to 7 days by MTT analysis; assay type: functional, organism-based; conditions: Human immunodeficiency virus 1, IIIB
[8] = test system: Human immunodeficiency virus 1; test: Antiviral activity against HIV1 IIIB infected in human C8166 cells assessed as inhibition of viral replication by measuring reduction in p24 antigen level incubated for 3 to 7 days by ELISA analysis; assay type: functional, organism-based; conditions: Human immunodeficiency virus 1, IIIB
[9] = Cytotoxicity against HEK293T cells assessed as reduction in cell viability by MTT assay; assay type: toxicity, cell-based, HEK-293T; conditions: human
[10] = test system: Human immunodeficiency virus 1; test: Antiviral activity against HIV1 KIZ001 infected in human PBMC assessed as inhibition of viral replication by measuring reduction in p24 antigen level incubated for 3 to 7 days by ELISA analysis; assay type: functional, organism-based; conditions: Human immunodeficiency virus 1, KIZ001, PBMC
[11] = test system: Human immunodeficiency virus 1; test: Antiviral activity against HIV1 TC-1 infected in human PBMC assessed as inhibition of viral replication by measuring reduction in p24 antigen level incubated for 3 to 7 days by ELISA analysis; assay type: functional, organism-based; conditions: Human immunodeficiency virus 1, TC-1, PBMC

Row | Compound | pEC50 [1] | pEC50 [2] | pEC50 [3] | pEC50 [4] | selectivity ratio [5] | pEC50 [6] | pEC50 [7] | pEC50 [8] | CC50 [9] | pEC50 [10] | pEC50 [11]
1 | Nc1ccn([C@@H]2CS[C@H](CO)O2)c(=O)n1 [LAMIVUDINE] | 6.77 | 6.70 | < 3.70 | 6.86 | > 588 | 6.27 | 6.78 | 6.07 | > 100 µM | 7.14 | 6.68
2 | [N-]=[N+]=N[C@]1(CO)O[C@@H](n2cnc3c(N)nc(F)nc32)[C@@H](F)[C@@H]1O | 8.70 | – | – | – | > 50300 | – | – | – | > 100 µM | – | –
